# Biological target: T1, glucocorticoid receptor (Homo sapiens, UniProt P04150)
# T1 construct: endogenous in cells; ATCC cat
# T1 sequence (P04150 1-777): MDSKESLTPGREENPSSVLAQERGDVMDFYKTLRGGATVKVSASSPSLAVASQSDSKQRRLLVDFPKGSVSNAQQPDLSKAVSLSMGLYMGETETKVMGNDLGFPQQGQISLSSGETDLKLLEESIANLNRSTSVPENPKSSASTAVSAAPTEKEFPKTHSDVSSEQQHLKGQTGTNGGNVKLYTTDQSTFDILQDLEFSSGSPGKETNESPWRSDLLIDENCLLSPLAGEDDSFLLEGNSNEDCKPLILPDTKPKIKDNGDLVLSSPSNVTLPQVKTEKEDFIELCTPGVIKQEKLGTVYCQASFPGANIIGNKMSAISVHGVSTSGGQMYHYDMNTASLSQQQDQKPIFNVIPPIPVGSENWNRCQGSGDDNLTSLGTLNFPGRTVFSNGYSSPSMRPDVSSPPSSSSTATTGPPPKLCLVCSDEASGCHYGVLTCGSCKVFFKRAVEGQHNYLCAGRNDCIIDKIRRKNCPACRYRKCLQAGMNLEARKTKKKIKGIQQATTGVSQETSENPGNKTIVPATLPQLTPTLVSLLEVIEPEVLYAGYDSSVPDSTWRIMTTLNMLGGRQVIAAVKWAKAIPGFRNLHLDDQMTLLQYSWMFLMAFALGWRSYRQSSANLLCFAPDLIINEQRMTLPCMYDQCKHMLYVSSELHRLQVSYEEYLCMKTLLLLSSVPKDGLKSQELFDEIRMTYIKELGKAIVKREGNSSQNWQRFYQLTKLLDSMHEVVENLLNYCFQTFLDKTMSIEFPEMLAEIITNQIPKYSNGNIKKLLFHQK
# Assay: Hep G2 TAT Ki: inhibition of dexamethasone-induced TAT in HepG2 cells (96 well)
# Format: cell-based
# Details: challenge of 100 nM dexamethasone, IC50 converted to Ki by Cheng and Prusoff equation
# Procedure, shortened: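 Cells lysed 15 min at 4 °C; TAT enzyme reaction 2 h at 37 °C, stopped with KOH, 30 min further at 37 °C. Inhibition fitted to 4-parameter logistic.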
row,Structure (SMILES),Ki
1,"CO[C@H]1C[C@@H](CN2CCN(S(=O)(=O)c3csc(C)n3)CC2c2cc3cnn(-c4ccc(F)cc4)c3cc2C)C1 (single isomer, unassigned) [Example 171, 4-((3-(1-(4-fluorophenyl)-6-methyl-1H-indazol-5-yl)-4-((3-methoxycyclobutyl)methyl)piperazin-1-yl)sulfonyl)-2-methylthiazole]",24 nM
2,"CC[C@@H](C)N1CCN(S(=O)(=O)c2cnn(C)n2)C[C@@H]1c1cc2cnn(-c3ccc(F)cc3)c2cc1C (stereo in doubt) [Example 122, 5-(1-(sec-butyl)-4-((2-methyl-2H-1,2,3-triazol-4-yl)sulfonyl)piperazin-2-yl)-1-(4-fluorophenyl)-6-methyl-1H-indazole]",110 nM
3,"Cc1cc2c(cnn2-c2ccc(F)cc2)cc1C1CN(S(=O)(=O)c2cnn(C)n2)CCN1Cc1ccccc1 (stereo not drawn) [Example 2, 5-(1-benzyl-4-((2-methyl-2H-1,2,3-triazol-4-yl)sulfonyl)piperazin-2-yl)-1-(4-fluorophenyl)-6-methyl-1H-indazole]",81 nM
4,"COc1ccc(CN2CCN(S(=O)(=O)c3cnn(C)n3)CC2c2cc3cnn(-c4ccc(F)cc4)c3cc2C)cc1 (stereo not drawn) [Example 3, 1-(4-fluorophenyl)-5-(1-(4-methoxybenzyl)-4-((2-methyl-2H-1,2,3-triazol-4-yl)sulfonyl)piperazin-2-yl)-6-methyl-1H-indazole]",85 nM
5,"Cc1cc2c(cnn2-c2ccc(F)cc2)cc1C1CN(S(=O)(=O)c2cnn(C)n2)CCN1CC(C)C (stereo not drawn) [Example 4, 1-(4-fluorophenyl)-5-(1-isobutyl-4-((2-methyl-2H-1,2,3-triazol-4-yl)sulfonyl)piperazin-2-yl)-6-methyl-1H-indazole]",41 nM
6,"Cc1cc2c(cnn2-c2ccc(F)cc2)cc1C1CN(S(=O)(=O)c2cnn(C)c2)CCN1CC(C)C (stereo not drawn) [Example 7, 1-(4-fluorophenyl)-5-(1-isobutyl-4-((1-methyl-1H-pyrazol-4-yl)sulfonyl)piperazin-2-yl)-6-methyl-1H-indazole]",62 nM
7,"Cc1cc2c(cnn2-c2ccc(F)cc2)cc1C1CN(S(=O)(=O)C2CC2)CCN1CC(C)C (stereo not drawn) [Example 8, 5-(4-(cyclopropylsulfonyl)-1-isobutylpiperazin-2-yl)-1-(4-fluorophenyl)-6-methyl-1H-indazole]",66 nM
8,"COCCn1cc(S(=O)(=O)N2CCN(CC(C)C)C(c3cc4cnn(-c5ccc(F)cc5)c4cc3C)C2)cn1 (stereo not drawn) [Example 9, 1-(4-fluorophenyl)-5-(1-isobutyl-4-((1-(2-methoxyethyl)-1H-pyrazol-4-yl)sulfonyl)piperazin-2-yl)-6-methyl-1H-indazole]",72 nM
9,"Cc1cc2c(cnn2-c2ccc(F)cc2)cc1C1CN(S(=O)(=O)c2cnn(C)n2)CCN1CC1CC1 (stereo not drawn) [Example 12, 5-(1-(cyclopropylmethyl)-4-((2-methyl-2H-1,2,3-triazol-4-yl)sulfonyl)piperazin-2-yl)-1-(4-fluorophenyl)-6-methyl-1H-indazole]",68 nM
10,"Cc1cc2c(cnn2-c2ccc(F)cc2)cc1C1CN(S(=O)(=O)c2cnn(C)n2)CCN1CC1CCOCC1 (stereo not drawn) [Example 13, 1-(4-fluorophenyl)-6-methyl-5-(4-((2-methyl-2H-1,2,3-triazol-4-yl)sulfonyl)-1-((tetrahydro-2H-pyran-4-yl)methyl)piperazin-2-yl)-1H-indazole]",97 nM
11,"Cc1cc2c(cnn2-c2ccc(F)cc2)cc1C1CN(S(=O)(=O)c2cnn(C)n2)CCN1CC1CC1C (stereo not drawn) [Example 14, 1-(4-fluorophenyl)-6-methyl-5-(4-((2-methyl-2H-1,2,3-triazol-4-yl)sulfonyl)-1-((2-methylcyclopropyl)methyl)piperazin-2-yl)-1H-indazole]",62 nM
12,"CCN1CCN(S(=O)(=O)c2cnn(C)n2)CC1c1cc2cnn(-c3ccc(F)cc3)c2cc1C (stereo not drawn) [Example 15, 5-(1-ethyl-4-((2-methyl-2H-1,2,3-triazol-4-yl)sulfonyl)piperazin-2-yl)-1-(4-fluorophenyl)-6-methyl-1H-indazole]",260 nM
13,"Cc1cc2c(cnn2-c2ccc(F)cc2)cc1C1CN(S(=O)(=O)c2cnn(C)n2)CCN1CC1COC1 (stereo not drawn) [Example 16, 1-(4-fluorophenyl)-6-methyl-5-(4-((2-methyl-2H-1,2,3-triazol-4-yl)sulfonyl)-1-(oxetan-3-ylmethyl)piperazin-2-yl)-1H-indazole]",520 nM
14,"CC(C)=CCN1CCN(S(=O)(=O)c2cnn(C)n2)CC1c1cc2cnn(-c3ccc(F)cc3)c2cc1C (stereo not drawn) [Example 17, 1-(4-fluorophenyl)-6-methyl-5-(4-((2-methyl-2H-1,2,3-triazol-4-yl)sulfonyl)-1-(3-methylbut-2-en-1-yl)piperazin-2-yl)-1H-indazole]",110 nM
15,"Cc1cc2c(cnn2-c2ccc(F)cc2)cc1C1CN(S(=O)(=O)c2cnn(C)n2)CCN1Cc1cccnc1 (stereo not drawn) [Example 18, 1-(4-fluorophenyl)-6-methyl-5-(4-((2-methyl-2H-1,2,3-triazol-4-yl)sulfonyl)-1-(pyridin-3-ylmethyl)piperazin-2-yl)-1H-indazole]",330 nM
16,"Cc1cc2c(cnn2-c2ccc(F)cc2)cc1C1CN(S(=O)(=O)c2cnn(C)n2)CCN1C(C)C (stereo not drawn) [Example 19, 1-(4-fluorophenyl)-5-(1-isopropyl-4-((2-methyl-2H-1,2,3-triazol-4-yl)sulfonyl)piperazin-2-yl)-6-methyl-1H-indazole]",140 nM
17,"COc1cc2c(cnn2-c2ccc(F)cc2)cc1C1CN(S(=O)(=O)c2cnn(C)n2)CCN1CC(C)C (stereo not drawn) [Example 22, 1-(4-fluorophenyl)-5-(1-isobutyl-4-((2-methyl-2H-1,2,3-triazol-4-yl)sulfonyl)piperazin-2-yl)-6-methoxy-1H-indazole]",57 nM
18,"CC(C)CN1CCN(S(=O)(=O)c2cnn(C)n2)CC1c1cc2cnn(-c3ccc(F)cc3)c2cc1Cl (stereo not drawn) [Example 24, 6-chloro-1-(4-fluorophenyl)-5-(1-isobutyl-4-((2-methyl-2H-1,2,3-triazol-4-yl)sulfonyl)piperazin-2-yl)-1H-indazole]",73 nM
19,"Cc1cc2c(cnn2-c2ccc(F)cc2)cc1[C@@H]1CN(S(=O)(=O)c2cnn(C)n2)CCN1C[C@@H](C)C(F)(F)F [Example 32, 1-(4-fluorophenyl)-6-methyl-5-((R)-4-((2-methyl-2H-1,2,3-triazol-4-yl)sulfonyl)-1-((R)-3,3,3-trifluoro-2-methylpropyl)piperazin-2-yl)-1H-indazole]",19 nM
20,"CC(=O)N1CCN(S(=O)(=O)c2cnn(C)n2)CC1c1cc2cnn(-c3ccc(F)cc3)c2cc1C (stereo not drawn) [Example 34, 1-(2-(1-(4-fluorophenyl)-6-methyl-1H-indazol-5-yl)-4-((2-methyl-2H-1,2,3-triazol-4-yl)sulfonyl)piperazin-1-yl)ethan-1-one]",430 nM
21,"Cc1cc2c(cnn2-c2ccc(F)cc2)cc1C1CN(S(=O)(=O)c2cnn(C)n2)CCN1C(=O)C(C)C (stereo not drawn) [Example 35, 1-(2-(1-(4-fluorophenyl)-6-methyl-1H-indazol-5-yl)-4-((2-methyl-2H-1,2,3-triazol-4-yl)sulfonyl)piperazin-1-yl)-2-methylpropan-1-one]",770 nM
22,"Cc1cc2c(cnn2-c2ccc(F)cc2)cc1C1CN(S(=O)(=O)c2cnn(C3CCOCC3)c2)CCN1CC(C)C (stereo not drawn) [Example 36, 1-(4-fluorophenyl)-5-(1-isobutyl-4-((1-(tetrahydro-2H-pyran-4-yl)-1H-pyrazol-4-yl)sulfonyl)piperazin-2-yl)-6-methyl-1H-indazole]",50 nM
23,"Cc1cc2c(cnn2-c2ccc(F)cc2)cc1C1CN(S(=O)(=O)c2cnn(C(C)C)n2)CCN1CC(C)C (stereo not drawn) [Example 37, 1-(4-fluorophenyl)-5-(1-isobutyl-4-((2-isopropyl-2H-1,2,3-triazol-4-yl)sulfonyl)piperazin-2-yl)-6-methyl-1H-indazole]",76 nM
24,"CCn1cc(S(=O)(=O)N2CCN(CC(C)C)C(c3cc4cnn(-c5ccc(F)cc5)c4cc3C)C2)cn1 (stereo not drawn) [Example 38, 5-(4-((1-ethyl-1H-pyrazol-4-yl)sulfonyl)-1-isobutylpiperazin-2-yl)-1-(4-fluorophenyl)-6-methyl-1H-indazole]",46 nM
25,"Cc1cc2c(cnn2-c2ccc(F)cc2)cc1C1CN(S(C)(=O)=O)CCN1CC(C)C (stereo not drawn) [Example 39, 1-(4-fluorophenyl)-5-(1-isobutyl-4-(methylsulfonyl)piperazin-2-yl)-6-methyl-1H-indazole]",57 nM
26,"CCn1ncc(S(=O)(=O)N2CCN(CC(C)C)C(c3cc4cnn(-c5ccc(F)cc5)c4cc3C)C2)n1 (stereo not drawn) [Example 40, 5-(4-((2-ethyl-2H-1,2,3-triazol-4-yl)sulfonyl)-1-isobutylpiperazin-2-yl)-1-(4-fluorophenyl)-6-methyl-1H-indazole]",53 nM
27,"CCCn1ncc(S(=O)(=O)N2CCN(CC(C)C)C(c3cc4cnn(-c5ccc(F)cc5)c4cc3C)C2)n1 (stereo not drawn) [Example 41, 1-(4-fluorophenyl)-5-(1-isobutyl-4-((2-propyl-2H-1,2,3-triazol-4-yl)sulfonyl)piperazin-2-yl)-6-methyl-1H-indazole]",60 nM

# Source: patent US12098144B2, “Piperazine indazole glucocorticoid receptor antagonists” (Corcept Therapeutics Incorporated, priority 2021, dated 2024)
